Experimental findings from publication PMC13195669, “GPR3 Ligands Discovered through Combined Virtual and Conformational Biosensor-Based Screening” (Journal of the American Chemical Society, 2026) are described below.

This test concerns the target T1, GPR3 T3.37A mutant (Homo sapiens, UniProt P46089, T121A).
T1 construct: ligated to the full-length C-terminus; expressed in transfected cells; host or cells: HEK293A, transient
Description: GPR3 conformational biosensor with T3.37A point mutation. In kind it is cell-based. Conditions: wildtype vs mutant biosensor; transiently transfected HEK293A. From the text:
To develop a hypothesis for the cause of the significant loss in efficacy from VH1 to 33, we computationally predicted the binding poses of both molecules in GPR3 (Figure a). […] In contrast, the cyclopropyl ring of 33 is still buried in the receptor’s transmembrane core. […] We also challenged this binding model of 33 with another GPR3 biosensor variant which harbors the T^3.37A point mutation in transmembrane helix 3. According to an alternative predicted pose of 33 obtained with Boltz-2 (c.f., SI – Materials and Methods section), this mutation should hamper 33 binding to GPR3.
BRET-based GPCR conformational sensor experiments
Cells expressing the conformational GPCR biosensors were grown for 24 h (stable cells) or 48 h (transiently transfected cells) in white 96-well plates and washed with 100 µl of HBSS. […] Three baseline BRET reads were recorded and averaged prior to the addition of serial dilutions of ligands or veh icle control and subsequent BRET reads. […] BRE T donor emission was quantified with a 470/80 nm monochromator. […] Experiments were carried out using a CLARIOstar plate reader.
FRET- and BRET-based measurements of cAMP levels and Gs dissociation/reassociation Transfected cells grown in black 96-well plates were washed twice with 100 µl of HBSS 48 h after transfection and incubated with HBSS. […] FRET donor emission was quantified with a 480/10 nm filter. […]

T1 sequence (P46089 2-330 T121A limits assumed): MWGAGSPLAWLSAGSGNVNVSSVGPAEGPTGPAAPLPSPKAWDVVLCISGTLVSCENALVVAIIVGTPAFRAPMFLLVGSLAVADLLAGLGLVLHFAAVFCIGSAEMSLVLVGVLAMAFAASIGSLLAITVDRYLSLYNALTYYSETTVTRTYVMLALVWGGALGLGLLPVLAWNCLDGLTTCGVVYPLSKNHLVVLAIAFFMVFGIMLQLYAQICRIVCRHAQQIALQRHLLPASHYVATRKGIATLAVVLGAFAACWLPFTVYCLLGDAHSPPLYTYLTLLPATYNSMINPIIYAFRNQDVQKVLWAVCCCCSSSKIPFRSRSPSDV

For the compound `N=c1n(Cc2ccccc2)c2ccccc2n1CC1CC1` [compound 33], the “effect of T3.37A mutation on activity” value is recorded as “no such effect on 33 activity”.
